*1 amine or outer side, *2 acyl side, *3 side chain or, on linkers, in order; H or OH if unused. Where a SMILES comes first, the peptide text is derived from it. [ ]: non-standard residue; d: D form. Ile(ψThz) = CC[C@H](C)[C@H](N[*:1])c1nc(C(=O)[*:2])cs1; NMeF = CN[C@@H](Cc1ccccc1)C(=O)O; Tle = CC(C)(C)[C@H](N)C(=O)O
Key:
in vivo = settings: Wistar, rat, po, 10 mg/kg
in vitro = settings: dog, MDCK
Description: Permeability in RRCK cells

Compound | bioavailability at 8 h (in vivo) [%] | Papp (in vitro) [×10⁻⁶ cm/s]
CC[C@H](C)[C@@H]1NC(=O)[C@@H]2CCCN2C(=O)[C@H](Cc2ccccc2)NC(=O)[C@H](C)NC(=O)c2csc(n2)[C@H]([C@@H](C)CC)NC(=O)[C@@H]2CCCN2C1=O (cyclo(AFPIP[Ile(ψThz)])) | 7 | 0.7
CC[C@H](C)[C@@H]1NC(=O)[C@@H]2CCCN2C(=O)[C@H](Cc2ccccc2)N(C)C(=O)[C@H](C(C)(C)C)NC(=O)c2csc(n2)[C@H]([C@@H](C)CC)NC(=O)[C@@H]2CCCN2C1=O (cyclo(IP[Ile(ψThz)][Tle][NMeF]P)) | 21 | 

From ChEMBL document CHEMBL4396919, “Permeability of Cyclic Peptide Macrocycles and Cyclotides and Their Potential as Therapeutics” (ACS Med Chem Lett, 2019)
